Here are results for five compounds from ChEMBL document CHEMBL1153316, “Selectivity profiling of DegP substrates and inhibitors” (Bioorg Med Chem, 2009).

A short description of assay [1]: Inhibition of subtilisin assessed as specific activity at 0.5 mM. On the set-up: scale not given: the % may be the effect or the level left.
A short description of assay [2]: Inhibition of elastase assessed as specific activity at 0.5 mM. Further details: scale not given: the % may be the effect or the level left.
Assay [3] can be described thus: Inhibition of trypsin assessed as specific activity at 0.5 mM. On the set-up: scale not given: the % may be the effect or the level left.
In assay [4] the target is Plasminogen (Homo sapiens) (UniProt P00747). Put plainly: Inhibition of plasmin assessed as specific activity at 0.5 mM. On the set-up: scale not given: the % may be the effect or the level left.
Assay [5] deals with Escherichia coli. Put plainly: Inhibition of Escherichia coli degP assessed as specific activity at 0.5 mM. On the set-up: scale not given: the % may be the effect or the level left.
Assay [6] has as its target Prothrombin (Homo sapiens) (UniProt P00734). Put plainly: Inhibition of thrombin assessed as specific activity at 0.5 mM. On the set-up: scale not given: the % may be the effect or the level left.
Assay [7] can be described thus: Inhibition of kallikrein assessed as specific activity at 0.5 mM. On the set-up: scale not given: the % may be the effect or the level left.
A short description of assay [8]: Inhibition of chymotrypsin assessed as specific activity at 0.5 mM. On the set-up: scale not given: the % may be the effect or the level left.
Assay [9] deals with Escherichia coli. Put plainly: Activity at Escherichia coli degP.
Assay [10] has as its target Prothrombin (Homo sapiens) (UniProt P00734). Put plainly: Inhibition of thrombin assessed as residual proteolytic activity at 0.5 mM.
Assay [11] deals with Escherichia coli. Put plainly: Inhibition of Escherichia coli degP assessed as residual proteolytic activity at 0.5 mM.
The nature of assay [12]: Inhibition of chymotrypsin assessed as residual proteolytic activity at 0.5 mM.
A short description of assay [13]: Inhibition of subtilisin assessed as residual proteolytic activity at 0.5 mM.
Assay [14] is described as follows: Inhibition of trypsin assessed as residual proteolytic activity at 0.5 mM.
Assay [15] concerns the target Plasminogen (Homo sapiens) (UniProt P00747). Put plainly: Inhibition of plasmin assessed as residual proteolytic activity at 0.5 mM.
Assay [16] can be described thus: Inhibition of kallikrein assessed as residual proteolytic activity at 0.5 mM.
Assay [17] can be described thus: Inhibition of elastase assessed as residual proteolytic activity at 0.5 mM.
A short description of assay [18]: Inhibition of Escherichia coli degP.
The nature of assay [19]: Inhibition of elastase.
Assay [20] in a line: Inhibition of subtilisin.

pIC50: −log10 of the molar value. Peptide text beside a SMILES is read from it.

Plasminogen (Homo sapiens), sequence (P00747 97-580 limits assumed): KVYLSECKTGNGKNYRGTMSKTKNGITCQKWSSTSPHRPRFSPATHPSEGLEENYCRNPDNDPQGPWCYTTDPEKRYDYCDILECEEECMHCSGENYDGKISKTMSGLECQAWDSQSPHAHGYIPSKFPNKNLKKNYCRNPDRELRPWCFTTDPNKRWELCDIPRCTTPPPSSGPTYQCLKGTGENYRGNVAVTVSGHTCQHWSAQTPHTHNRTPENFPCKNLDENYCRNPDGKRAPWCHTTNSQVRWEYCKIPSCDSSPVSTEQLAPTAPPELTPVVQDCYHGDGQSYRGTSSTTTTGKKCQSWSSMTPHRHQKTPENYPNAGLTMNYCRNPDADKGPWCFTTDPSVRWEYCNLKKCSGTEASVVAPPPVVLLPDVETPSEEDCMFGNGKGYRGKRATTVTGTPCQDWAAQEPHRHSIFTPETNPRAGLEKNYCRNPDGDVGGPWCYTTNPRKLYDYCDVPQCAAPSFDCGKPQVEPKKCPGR
Plasminogen (Homo sapiens), sequence (P00747 581-810 limits assumed): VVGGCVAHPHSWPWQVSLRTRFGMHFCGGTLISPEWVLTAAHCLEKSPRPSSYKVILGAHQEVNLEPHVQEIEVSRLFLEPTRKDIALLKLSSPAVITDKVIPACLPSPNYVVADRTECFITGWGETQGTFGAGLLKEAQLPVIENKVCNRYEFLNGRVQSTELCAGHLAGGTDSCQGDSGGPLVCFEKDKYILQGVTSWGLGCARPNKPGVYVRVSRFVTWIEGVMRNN

As a reminder, the Km is the substrate concentration at which the rate is half of its maximum. In general, Vmax refers to the top rate of the reaction or transport when substrate is in excess. Regarding `CSCC[C@H](NC(=O)[C@@H]1CCCN1C(=O)[C@@H](N)CC(=O)O)C(=O)N[C@@H](Cc1ccccc1)C(=O)N[C@@H](CCCCN)C(=O)N[C@@H](CC(C)C)C(=O)N[C@H](C(=O)Nc1ccc([N+](=O)[O-])cc1)C(C)C` (HELM PEPTIDE1{D.P.M.F.K.L.V.[O=[N+]([O-])c1ccc(N[*:1])cc1]}$$$$V2.0), the Activity is 1% in assay [1]; 4% in assay [2]; less than 1% in assay [3]; less than 1% in assay [4]; 473% in assay [5]; less than 1% in assay [6]. The Activity in assay [7] and in assay [8] was less than 1% throughout. Besides, in assay [9], the Km worked out at 600 µM. For the same compound, in assay [9], the Vmax is 1.2 µmol/min.
As to `CSCC[C@H](NC(=O)[C@H](CCSC)NC(=O)[C@@H]1CCCN1C(=O)[C@H](CC(C)C)NC(=O)[C@@H](NC(=O)[C@H](CC(N)=O)NC(=O)[C@H](Cc1ccccc1)NC(=O)[C@@H](NC(=O)[C@@H]1CCCN1)C(C)C)[C@@H](C)O)C(=O)NCC(=O)N[C@@H](CCCCN)C(=O)N[C@@H](C)C(=O)N[C@@H](CO)C(=O)N1CCC[C@H]1C(=O)N[C@H](C(=O)CCl)C(C)C` (HELM PEPTIDE1{P.V.F.N.T.L.P.M.M.G.K.A.S.P.V.[ClC[*:1]]}$$$$V2.0), the Activity was 101% in assay [10]; 63% in assay [11]; 48% in assay [12]; 143% in assay [13]; 591% in assay [14]; 62% in assay [15]. Moreover, the Activity in assay [16] is 122%; in [17], less than 1%.
`CC(C)[C@H](NC(=O)[C@H](CCCNC(=N)N)NC(=O)CNC(=O)[C@@H](N)CO)C(=O)N[C@H](C(=O)N1CCC[C@H]1C(=O)NCC(=O)N[C@@H](Cc1ccc(O)cc1)C(=O)NCC(=O)N[C@@H](Cc1cnc[nH]1)C(=O)N[C@@H](C)C(=O)CCl)C(C)C` (HELM PEPTIDE1{S.G.R.V.V.P.G.Y.G.H.A.[ClC[*:1]]}$$$$V2.0): the Activity in assay [10] came to 131%; in assay [11], 102%; in assay [12], 69%; in assay [13], 15%; in assay [14], 285%; in assay [15], 62%. In addition, the results for the Activity in [16] and in assay [17] were 135% and 83%, respectively.
A word on the pIC50: it is −log10 of the IC50, conventionally taken in molar units. In the case of `CSCC[C@H](NC(=O)[C@@H]1CCCN1C(=O)[C@@H](N)CO)C(=O)N[C@@H](Cc1ccccc1)C(=O)N[C@@H](CCCCN)C(=O)NCC(=O)N[C@H](C(=O)CCl)C(C)C` (HELM PEPTIDE1{S.P.M.F.K.G.V.[ClC[*:1]]}$$$$V2.0), the pIC50 in [18] is 4.12; in assay [19] it was 3.66; in assay [20], 9.00. For the same compound, the Activity in assay [10] was 96%; in assay [11], 3%; in [12] it was 92%; in assay [13], less than 1%; in assay [14], 354%; in assay [15] it was 81%. Besides, the Activity is 101% in assay [16] and less than 1% in assay [17].
Consider `CSCC[C@H](NC(=O)[C@H](CCSC)NC(=O)[C@@H]1CCCN1C(=O)[C@H](CC(C)C)NC(=O)[C@@H](NC(=O)[C@H](CC(N)=O)NC(=O)[C@H](Cc1ccccc1)NC(=O)[C@@H](N)C(C)C)[C@@H](C)O)C(=O)NCC(=O)N[C@@H](CCCCN)C(=O)N[C@@H](C)C(=O)N[C@@H](CO)C(=O)N1CCC[C@H]1C(=O)N[C@H](C(=O)CCl)C(C)C` (HELM PEPTIDE1{V.F.N.T.L.P.M.M.G.K.A.S.P.V.[ClC[*:1]]}$$$$V2.0), for which the Activity was 102% in [10]; 57% in [11]; 22% in assay [12]; 155% in assay [13]; 287% in [14]; 75% in [15]. Besides, the Activity in [16] is 88%; in assay [17], less than 1%.
